Inhibition and CC50 data for ten compounds are collected here from patent US20140303164A1, “THERAPEUTIC COMPOUNDS” (Gilead Sciences, Inc., priority 2013, published 2014).

Usually inhibition stands for the change of the read-out against control, counted positive when it falls. As a reminder, the CC50 is the concentration at which the toxic effect on the cells reaches its halfway point. Low readings indicate harm at low concentration, high ones better tolerance by the cells.

The test system of one data set is HIV-IIIb. Put plainly: Test A: Antiviral Assay in MT4 Cells. The note with it: Human immunodeficiency virus 1, IIIB, MT4, 120 h; for inhibition at 0.2 µM: read-out: % inhibition at 0.2 μM; for inhibition at 2 µM: read-out: % inhibition at 2 μM. The data set is classed as cell-based, HIV-1. How it is done: Test A: Antiviral Assay in MT4 Cells
MT-4 cells were next mixed with HIV-IIIb at an m.o.i of 0.003 for 1 hour, after which time 35 μL of virus/cell mixture (2000 cells) was immediately added to each well containing 40 μL of diluted compound. The plates were then incubated at 37° C. for 5 days. […] Cell lysis was carried out by incubating at room temperature for 10 min and then chemiluminescence was read.

A short description of data set [1]: Test B: Cytotoxicity Assay. Format: cell-based. The note with it: human, uninfected MT-4 cells, same protocol as Test A. In short, it runs like this:
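Uninfected MT-4 cells (2000 per well) incubated with diluted compound at 37° C. for 5 days, following the antiviral protocol without HIV-IIIb.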

Consider `CC(C)(C)C#Cc1ccc(-c2ccc(Cl)n3c(N)nnc23)c([C@H](Cc2cc(F)cc(F)c2)NC(=O)Cn2nc(C(F)F)c3c2C(F)(F)[C@@H]2C[C@H]32)n1` [Compound 115C, N—((S)-1-(3-(3-amino-5-chloro-[1,2,4]triazolo[4,3-a]pyridin-8-yl)-6-(3,3-dimethylbut-1-yn-1-yl)pyridin-2-yl)-2-(3,5-difluorophenyl)ethyl)-2-((3b-S,4aR)-3-(difluoromethyl)-5,5-difluoro-3b,4,4a,5-tetrahydro-1H-cyclopropa[3,4]cyclopenta[1,2-c]pyrazol-1-yl)acetamide], for which, in the data set on HIV-IIIb, the inhibition at 0.2 µM was found to be 84% and the inhibition at 2 µM stood at 91%. The compound also came in with a CC50 at 5 days in data set [1] of 9.31 µM.
The corresponding values for `Cn1nc(NC(=O)C(F)(F)F)c2c(Cl)ccc(-c3ccc(C#CC(C)(C)O)nc3[C@H](Cc3cc(F)cc(F)c3)NC(=O)Cn3nc(C(F)F)c4c3C(F)(F)[C@@H]3C[C@H]43)c21` [Compound 98, N-(4-chloro-7-(2-((S)-1-(2-((3bS,4aR)-3-(difluoromethyl)-5,5-difluoro-3b,4,4a,5-tetrahydro-1H-cyclopropa[3,4]cyclopenta[1,2-c]pyrazol-1-yl)acetamido)-2-(3,5-difluorophenyl)ethyl)-6-(3-hydroxy-3-methylbut-1-yn-1-yl)pyridin-3-yl)-1-methyl-1H-indazol-3-yl)-2,2,2-trifluoroacetamide] are 100%, 100% and 8.41 µM.
Regarding `Cc1nc(NS(C)(=O)=O)c2cccc(-c3ccc(C#CC(C)(C)O)nc3[C@H](Cc3cc(F)cc(F)c3)NC(=O)Cn3nc(C(F)F)c4c3C(F)(F)[C@@H]3C[C@H]43)n12` [Compound 120H, 2-((3b-S,4aR)-3-(difluoromethyl)-5,5-difluoro-3b,4,4a,5-tetrahydro-1H-cyclopropa[3,4]cyclopenta[1,2-c]pyrazol-1-yl)-N—((S)-2-(3,5-difluorophenyl)-1-(6-(3-hydroxy-3-methylbut-1-yn-1-yl)-3-(3-methyl-1-(methylsulfonamido)imidazo[1,5-a]pyridin-5-yl)pyridin-2-yl)ethyl)acetamide], in the data set on HIV-IIIb, the inhibition at 0.2 µM is 51% and the inhibition at 2 µM is 88%. For the same compound, half-maximal cytotoxicity in data set [1] (CC50 at 5 days) was put at 11.7 µM.
On the same counts, the results for `Cn1nc(NS(C)(=O)=O)c2c(Cl)ccc(-c3ccc(C#CCOCCO)nc3[C@H](Cc3cc(F)cc(F)c3)NC(=O)Cn3nc(C(F)(F)F)c4c3C(F)(F)[C@@H]3C[C@H]43)c21` [Compound 153, N—((S)-1-(3-(4-chloro-1-methyl-3-(methylsulfonamido)-1H-indazol-7-yl)-6-(3-(2-hydroxyethoxy)prop-1-yn-1-yl)pyridin-2-yl)-2-(3,5-difluorophenyl)ethyl)-2-((3b-S,4aR)-5,5-difluoro-3-(trifluoromethyl)-3b,4,4a,5-tetrahydro-1H-cyclopropa[3,4]cyclopenta[1,2-c]pyrazol-1-yl)acetamide] are 98%, 98% and 18.6 µM.
In the case of `Cn1nc(N)c2cccc(-c3ccc(C#CC(C)(C)O)nc3[C@H](Cc3cc(F)cc(F)c3)NC(=O)Cn3nc(C(F)(F)F)c4c3C(F)(F)[C@@H]3C[C@H]43)c21` [Compound 25, N—((S)-1-(3-(3-amino-1-methyl-1H-indazol-7-yl)-6-(3-hydroxy-3-methylbut-1-yn-1-yl)pyridin-2-yl)-2-(3,5-difluorophenyl)ethyl)-2-((3b-S,4aR)-5,5-difluoro-3-(trifluoromethyl)-3b,4,4a,5-tetrahydro-1H-cyclopropa[3,4]cyclopenta[1,2-c]pyrazol-1-yl)acetamide], in the data set with HIV-IIIb, the inhibition at 0.2 µM worked out at 89% and the inhibition at 2 µM stood at 89%. This compound had a CC50 at 5 days in data set [1] of 9.14 µM.
For `Cn1nc(N)c2cccc(-c3ccc(C#CC(C)(C)O)nc3[C@H](Cc3cc(F)cc(F)c3)NC(=O)Cn3nc(C(F)F)c4c3C(F)(F)[C@@H]3C[C@H]43)c21` [Compound 32, N—((S)-1-(3-(3-amino-1-methyl-1H-indazol-7-yl)-6-(3-hydroxy-3-methylbut-1-yn-1-yl)pyridin-2-yl)-2-(3,5-difluorophenyl)ethyl)-2-((3b-S,4aR)-3-(difluoromethyl)-5,5-difluoro-3b,4,4a,5-tetrahydro-1H-cyclopropa[3,4]cyclopenta[1,2-c]pyrazol-1-yl)acetamide], in the data set on HIV-IIIb, the inhibition at 0.2 µM is 84% and the inhibition at 2 µM worked out at 84%. Also, the 50% cytotoxic concentration (CC50) at 5 days in data set [1] is 9.18 µM.
With `CCN1CCN(CC(=O)N[C@@H](Cc2cc(F)cc(F)c2)c2nc(C#CC(C)(C)O)ccc2-c2ccc(Cl)c3c(NS(C)(=O)=O)nn(C)c23)CC1` [Compound 197, (S)—N-(1-(3-(4 chloro-1-methyl-3-(methylsulfonamido)-1H-indazol-7-yl)-6-(3-hydroxy-3-methylbut-1-yn-1-yl)pyridin-2-yl)-2-(3,5-difluorophenyl)ethyl)-2-(4-ethylpiperazin-1-yl)acetamide], the inhibition at 2 µM with HIV-IIIb worked out at 63%. The compound also came in with a half-maximal cytotoxic concentration (CC50) at 5 days in data set [1] of 15.4 µM.
Turning to `COC(=O)Nc1nn(C)c2c(-c3ccc(C#CC(C)(C)O)nc3[C@H](Cc3cc(F)cc(F)c3)NC(=O)Cn3nc(C(F)F)c4c3C(F)(F)[C@@H]3C[C@H]43)ccc(Cl)c12` [Compound 90D, methyl (4-chloro-7-(2-((S)-1-(2-((3b-S,4aR)-3-(difluoromethyl)-5,5-difluoro-3b,4,4a,5-tetrahydro-1H-cyclopropa[3,4]cyclopenta[1,2-c]pyrazol-1-yl)acetamido)-2-(3,5-difluorophenyl)ethyl)-6-(3-hydroxy-3-methylbut-1-yn-1-yl)pyridin-3-yl)-1-methyl-1H-indazol-3-yl)carbamate], in the data set with HIV-IIIb, the inhibition at 0.2 µM is 97% and the inhibition at 2 µM turned out to be 97%. Besides, it took 7.62 µM to reach half-maximal cytotoxicity in data set [1] (CC50 at 5 days).
With `COc1cc(-c2ccc(Cl)c3c(NS(C)(=O)=O)nn(C)c23)c([C@H](Cc2cc(F)cc(F)c2)NC(=O)Cn2nc(C(F)F)c3c2C(F)(F)[C@@H]2C[C@H]32)nc1C#CC(C)(C)O` [Compound 139B, N—((S)-1-(3-(4-chloro-1-methyl-3-(methylsulfonamido)-1H-indazol-7-yl)-6-(3-hydroxy-3-methylbut-1-yn-1-yl)-5-methoxypyridin-2-yl)-2-(3,5-difluorophenyl)ethyl)-2-((3b-S,4aR)-3-(difluoromethyl)-5,5-difluoro-3b,4,4a,5-tetrahydro-1H-cyclopropa[3,4]cyclopenta[1,2-c]pyrazol-1-yl)acetamide], in the data set on HIV-IIIb, the inhibition at 0.2 µM was determined as 94% and the inhibition at 2 µM amounted to 94%. Besides, the cytotoxic concentration (CC50) at 5 days in data set [1] was 15.4 µM.
Regarding `CC(C)(O)C#Cc1ccc(-c2ccc(Cl)n3c(N)nnc23)c([C@H](Cc2cc(F)cc(F)c2)NC(=O)Cn2nc(C(F)F)c3c2C(F)(F)[C@@H]2C[C@H]32)n1` [Compound 106E, N—((S)-1-(3-(3-amino-5-chloro-[1,2,4]triazolo[4,3-a]pyridin-8-yl)-6-(3-hydroxy-3-methylbut-1-yn-1-yl)pyridin-2-yl)-2-(3,5-difluorophenyl)ethyl)-2-((3b-S,4aR)-3-(difluoromethyl)-5,5-difluoro-3b,4,4a,5-tetrahydro-1H-cyclopropa[3,4]cyclopenta[1,2-c]pyrazol-1-yl)acetamide], in the data set on HIV-IIIb, the inhibition at 0.2 µM amounted to 95% and the inhibition at 2 µM amounted to 96%. Further, the 50% cytotoxic concentration (CC50) at 5 days in data set [1] was 12.4 µM.
